Values belong to the molecule of their own block, whether it stands above or below them.
Tests used:
[1] = test system: log phase Staphylococcus aureus; assay: Chequerboard analysis of HT00800059 and HT61 against log phase Staphylococcus aureus; type: cell-based, Staphylococcus aureus (Oxford)
Experimental: (§1) Staphylococcus aureus (Oxford); Gram positive; Reference strain.
(§2) Log phase growth of methicilin sensitive Staphylococcus aureus (MSSA) was carried out as follows: • Bacteria were grown in 10 ml of nutrient broth (No. 2, (Oxoid)) overnight at 37° C. with continuous shaking at 120 rpm. The overnight cultures were diluted 1000× with iso-sensitest broth. The cultures were incubated at 37° C. with shaking for 1-2 hours to reach log CFU 6. Viability of the bacteria was estimated by colony forming unit (CFU) counts. From serial 10-fold dilutions of the experimental cultures, 100 μl samples were added to triplicate plates of nutrient agar plates (Oxoid) or blood agar plates (Oxoid). CFUs were counted after incubation of the plates at 37° C. for 24 hours.
(§3) Bacterial cultures: 10 μl of overnight cultures was added to 10 ml of fresh iso-sensitest broth to make the inoculation to 10^6 CFU/ml. 290 μl of the cell suspension was added to each well of the 96 well plate, which was incubated at 37° C. for 24 hours. 300 μl of iso-sensitest broth without bacterial cells were added to wells of the plate as a no bacterial control.
(§4) MIC determination: The optical density of the bacterial cells was read at 405 nm using a plate reader (Bio TEK). The MIC concentration was determined as the lowest concentration of drug which inhibits the bacterial growth.
(§5) HT61 was dissolved in DMSO to the stock concentration of 10 mg/ml.
(§6) HT00800059 was dissolved in H2O to the stock solution 30.07 mg/ml.
The drugs were first diluted as follows: • 28.8 μl of HT61 at 10 mg/ml was added into 271.2 μl of H2O followed by diluting 2 fold for 6 times.
Both drugs were mixed as following pattern: 10 μl of HT00800059 from each dilution was added into the wells of a 96 well plate from top to bottom and 10 μl of HT61 from each dilution was added to the same 96 well plate from left to right. After addition of 280 μl log phase cell suspension, the final concentrations of drugs for each well in the 96 well plate are shown in the table below.
Incubation of the compounds with the bacterial suspension was carried out for 24 hours. The kill effect of the drug combination and signal drug MIC was measured by optical density reading at 405 nm with a plate reader (Bio TEK). The MIC concentration was determined as the lowest concentration of drug which inhibits the bacterial growth.
(§7) The fractional inhibitory concentration (FIC) index was carried out as follows: (MIC of drug A, tested in combination)/(MIC of drug A, tested alone)+(MIC of drug B, tested in combination)/(MIC of drug B, tested alone). The interaction was defined as synergistic if the FIC index was <1, additive if the FIC index was =1 and antagonistic if the FIC index was >1.

[2] = test system: stationary phase Staphylococcus aureus; assay: In vitro efficacy test against stationary phase Staphylococcus aureus (CFU counts); type: cell-based, Staphylococcus aureus (Oxford); details: CFU counts over 8 hours
Experimental: as §1
Stationary phase growth of methicilin sensitive Staphylococcus aureus (MSSA) was carried out as follows:
Subculture of the bacterial strains on agar plates: Overnight S. aureus bacterial cultures were stored at −70° C. with 20% glycerol (cryoprotectant). A loopful of the frozen cells was streaked on a blood agar plate which was incubated at 37° C. overnight (or longer) as culture plate A. A single colony of each strain from the culture plate A was streaked on the blood agar plate which was incubated at 37° C. overnight (or longer) as culture plate B. The culture plate B was stored at 4° C. for a week and served as the initial inoculation plate.
Bacterial growth in broth culture: A single colony from culture plate B was inoculated in 10 ml of nutrient broth (No. 2, (Oxoid)), which was incubated overnight at 37° C. with continuous shaking at 120 rpm. 200 μl of the overnight culture was added into a 500 ml bottle containing 100 ml of nutrient broth. The 100 ml culture was incubated at 37° C. with continuous shaking for 6 to 7 days. Viability of the cultures is estimated by colony forming unit (CFU) counts at 2 hour intervals for the first 24 hours and 12 to 24 hours afterwards.
Colony Forming Unit (CFU) counts were performed as follows: From serial 10-fold dilutions of the cultures, 100 μl samples were added to one third of blood agar plates (Oxoid) in triplicate. CFUs were counted using an aCoLyte colony counter (Synbiosis) after incubation of the plates at 37° C. for 24 hours or longer.
7 day old stationary phase cultures were used. The stationary phase cultures were diluted to obtain CFU counts in the cell suspension of 10^6 to 10^7 CFU/ml. The cell suspension was used to test drug sensitivity.
as §5
HT00800059 was dissolved in H2O to the stock solution 10 mg/ml
The drugs were first diluted as follows: • 7.2 μl of HT61 at 10 mg/ml was added into 292.8 μl of H2O followed by diluting 2 fold, 3 times. • 57.6 μl of HT00800059 at 10 mg/ml was added into 242.4 μl of H2O followed by diluting 2 fold, 2 times. • 10 μl of HT00800059 from each dilution was added into the wells of a 96 well plate followed by the addition of 290 μl of bacterial cell suspension to make the final concentrations of HT00800059 at 64, 32 and 0 μg/ml. • […]
In combination of two drugs: 10 μl of HT61 from each dilution was added into the wells of a 96 well plate followed by the addition of 10 μl of HT00800059 from each dilution. […]

[3] = test system: log phase Staphylococcus aureus; assay: Chequerboard analysis of HT00800059 with HT230 or HT281 against log phase Staphylococcus aureus; type: cell-based, Staphylococcus aureus (Oxford); details: for optical density reading at 405 nm: HT00800059 μg/ml: 1024,512,256,128,64,32,16,0, 24 hours; for MIC: Staphylococcus aureus, summary list, read-out: alone MIC
Experimental: as §1, §2, §3, §4
HT230 was dissolved in DMSO to the stock concentration of 10 mg/ml.
HT281 was dissolved in DMSO to the stock concentration of 10 mg/ml.
as §6
HT230 or HT281 (10 mg/ml) was firstly diluted to 0.96 mg/ml, then a serial of 2 fold dilution was carried out.
This was followed by the addition of 280 μl of log phase culture at 10^6 CFU/ml to make the final concentrations of each drug as shown.
In the above table, values in bold text are for HT00800059. Values in plain text are for HT230 or HT281. The numbers shown in each well are μg/ml.
Incubation of the compounds with the bacterial suspension was carried out for 24 hours. The kill effects of the drug combination were measured by optical density reading at 405 nm with a plate reader (Bio TEK).
as §7

[4] = test system: clinically latent microorganisms; assay: Screening for ability to kill clinically latent microorganisms (method of WO2000028074); type: cell-based; details: observed by the Applicant
Text: International Patent Application, Publication Number WO2000028074 describes a method of screening compounds to determine their ability to kill clinically latent microorganisms. […] This observation has necessitated the development of novel antimicrobials which may be used to kill clinically latent microorganisms.
By way of example, WO2000028074 describes a suitable method of screening compounds to determine their ability to kill clinically latent microorganisms. A typical method may include the following steps: • (1) growing a bacterial culture to stationery phase; • (2) treating the stationery phase culture with one or more antimicrobial agents at a concentration and or time sufficient to kill growing bacteria, thereby selecting a phenotypically resistant sub-population; • (3) incubating a sample of the phenotypically resistant subpopulation with one or more test compounds or agents; and • (4) assessing any antimicrobial effects against the phenotypically resistant subpopulation.

Compound: CC[C@H]1OC(=O)[C@H](C)[C@@H](O[C@H]2C[C@@](C)(OC)[C@@H](O)[C@H](C)O2)[C@H](C)[C@@H](O[C@@H]2O[C@H](C)C[C@H](N(C)C)[C@H]2O)[C@](C)(O)C[C@@H](C)CN(C)[C@H](C)[C@@H](O)[C@]1(C)O [azithromycin]
activity against clinically latent microorganisms [4]: little or no activity

Compound: CC(=O)NC[C@H]1CN(c2ccc(N3CCOCC3)c(F)c2)C(=O)O1 [linezolid]
activity against clinically latent microorganisms [4]: little or no activity

Further lines, with some results ahead:

MIC ([1]; Staphylococcus aureus, drug alone, Plate 1, read-out: MIC): 8 µg/mL
MIC ([1]; Staphylococcus aureus, read-out: alone MIC): 16 µg/mL
MIC ([1]; Staphylococcus aureus, with HT00800059 128 μg/ml, Plate 1, read-out: MIC of HT61 + HT00800059): 4 µg/mL
MIC ([1]; drug alone, Plate 2): 8 µg/mL
MIC of HT61 + HT00800059 ([1]; with HT00800059 128 μg/ml, Plate 2): 4 µg/mL
HT61 MIC in combination ([1]; with HT00800059 at 128 μg/ml): 8 µg/mL
Compound: Cc1nc2ccc(Oc3ccccc3)cc2c2c1CCN2CCc1ccccc1 [HT61, 4-methyl-1-(2-phenylethyl)-8-phenoxy-2,3-dihydro-1H-pyrrolo[3,2-c]-quinoline]
activity against stationary phase S. aureus ([2]; 8 μg/ml): low activity
activity against stationary phase S. aureus ([2]; 4 and 2 μg/ml): no observed activity

MIC after combination ([3]; HT230/HT00800059 chequerboard): 1 µg/mL
MIC before combination ([3]; HT230/HT00800059 chequerboard): 4 µg/mL
MIC [3]: 4 µg/mL
HT230 MIC in combination ([3]; with HT00800059 at 128 μg/ml): 4 µg/mL
HT230 MIC in combination ([3]; with HT00800059 at 256 μg/ml): 1 µg/mL
Compound: Cc1cc(N2CCC(Cc3ccccc3)C2)c2cc(Oc3ccccc3)ccc2n1 (stereo not shown) [HT230, 4-(3-benzylpyrrolidin-1-yl)-2-methyl-6-phenoxyquinoline]
optical density reading at 405 nm ([3]; HT230 0.03125 μg/ml): 1.237
optical density reading at 405 nm ([3]; HT230 0.0625 μg/ml): 1.312
optical density reading at 405 nm ([3]; HT230 0.125 μg/ml): 1.317
optical density reading at 405 nm ([3]; HT230 0.25 μg/ml): 1.401
optical density reading at 405 nm ([3]; HT230 0.5 μg/ml): 1.135
optical density reading at 405 nm ([3]; HT230 1 μg/ml): 1.160
optical density reading at 405 nm ([3]; HT230 2 μg/ml): 1.190
optical density reading at 405 nm ([3]; HT230 4 μg/ml): 0.365
optical density reading at 405 nm ([3]; HT230 8 μg/ml): 0.363
optical density reading at 405 nm ([3]; HT230 16 μg/ml): 0.357
optical density reading at 405 nm ([3]; HT230 32 μg/ml): 0.406

MIC after combination ([3]; HT281/HT00800059 chequerboard): 4 µg/mL
MIC before combination ([3]; HT281/HT00800059 chequerboard): 8 µg/mL
MIC [3]: 8 µg/mL
Compound: Cc1cc(N2CCC(Cc3ccccc3)C2)c2cc(NC(=O)c3ccccc3)ccc2n1 (stereo not shown) [HT281, N-[4-(3-benzylpyrrolidin-1-yl)-2-methylquinolin-6-yl]benzamide]
optical density reading at 405 nm ([3]; HT281 0.125 μg/ml): 1.334
optical density reading at 405 nm ([3]; HT281 0.25 μg/ml): 1.281
optical density reading at 405 nm ([3]; HT281 0.5 μg/ml): 1.378
optical density reading at 405 nm ([3]; HT281 0.625 μg/ml): 1.256
optical density reading at 405 nm ([3]; HT281 1 μg/ml): 1.263
optical density reading at 405 nm ([3]; HT281 2 μg/ml): 1.157
optical density reading at 405 nm ([3]; HT281 4 μg/ml): 1.080
optical density reading at 405 nm ([3]; HT281 8 μg/ml): 0.361
optical density reading at 405 nm ([3]; HT281 16 μg/ml): 0.364
optical density reading at 405 nm ([3]; HT281 32 μg/ml): 0.396
optical density reading at 405 nm ([3]; HT281 64 μg/ml): 0.558
